The first experiment addresses T1, GRK2 (Homo sapiens, UniProt P25098).
T1 construct: purchased SignalChem A14-10G
T1 sequence (P25098 1-689): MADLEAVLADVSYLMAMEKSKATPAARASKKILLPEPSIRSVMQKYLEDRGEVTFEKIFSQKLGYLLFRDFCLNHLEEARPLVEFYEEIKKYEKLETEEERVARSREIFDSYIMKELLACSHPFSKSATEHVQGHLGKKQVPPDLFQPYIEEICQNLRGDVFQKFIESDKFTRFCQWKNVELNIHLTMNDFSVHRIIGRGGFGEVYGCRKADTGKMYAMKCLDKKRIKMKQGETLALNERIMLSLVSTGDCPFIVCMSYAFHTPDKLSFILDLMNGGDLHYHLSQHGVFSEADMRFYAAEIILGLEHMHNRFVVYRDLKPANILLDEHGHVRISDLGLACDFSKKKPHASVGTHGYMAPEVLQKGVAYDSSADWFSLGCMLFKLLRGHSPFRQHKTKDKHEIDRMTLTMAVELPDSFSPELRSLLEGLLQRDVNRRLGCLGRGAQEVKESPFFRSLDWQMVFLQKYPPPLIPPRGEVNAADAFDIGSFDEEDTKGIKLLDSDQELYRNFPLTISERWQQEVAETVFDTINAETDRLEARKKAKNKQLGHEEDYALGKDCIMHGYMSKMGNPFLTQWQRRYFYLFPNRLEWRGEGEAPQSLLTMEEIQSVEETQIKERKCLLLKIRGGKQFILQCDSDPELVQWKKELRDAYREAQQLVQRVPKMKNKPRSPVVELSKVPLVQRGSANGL
Put plainly: ADPGlo GRK2 Inhibition Assay (Example 8). It counts as biochemical. To be noted: ADPGlo GRK2 enzyme assay; read-out: A: Enzymatic GRK2: IC50 (nM) (Example 8). As for the experimental part: HTS was performed using 1 μM compound.
Compounds were dissolved in 100% DMSO, serially diluted tree-fold from 100 μM concentration to 46 nM and transferred (50 nL) into assay ready plate.
Materials: GRK2 was purchased from SignalChem (Cat #A14-10G, Lot #X^645-3). Substrate GRKtide was from SignalChem (Cat #G46-58, Lot #R339-6). ADP-Glo Kinase Assay from Promega (Cat #V9102). Assay buffer consisted of 25 mMv HEPES (pH7.5), 10 mMv MgCl2, 0.01% Tween-20, 1 mM DDT. 384-well white plates were from Greiner […] (Item #784075).
HTS protocol: Take 384 well plate with 50 nL of compound in columns 3-22/DMSO solution 1-2,23-24. Add 2.5 μL assay buffer to columns 23 and 24 using Thermo Scientific Multidrop Combi Dispenser. Add 2.5 μL of 2× enzyme solution (15 nM in 1× assay buffer) using Thermo Scientific Multidrop Combi Reagent Dispenser to all columns except of 23 and 24. Incubate for 15 minutes. Fill plate with 2.5 μL of 2× substrate mix (20 μM ATP and 0.6 mg/nt GRKtide in Ix assay buffer) using Thermo Scientific Multidrop Combi Reagent Dispenser. Spin 15 seconds at 1000 rpm and incubate for 180 min at room temperature. Add 5 μL ADP-Glo reagent to all the wells. Spin 15 seconds at 1000 rpm and incubate for 40 min at room temperature. Add 10 μL Detection solution to all the wells. Incubate for 30 min at room temperature. Read plate in Luminescent modeon BMG PheraStar FSX (gain=3600).
Data Analysis: Data were analyzed in GraphPad Prism 8.0.2. Each HTS plate contains compounds in columns 3-22, controls (enzyme, no compound) in columns 1 and 2, and blanks (no enzyme) in columns 23 and 24. HTS percent inhibition was calculated for each compound from the signal in luminescence units and the mean of the plate controls and the mean of the plate blanks using the following equation: % Inhibition=100*(1−((signal-blank mean)/(control mean-blank mean))). At the final stage of data processing, we obtain dose-response curves, tables and SDF-files with the results of screening for each substance.
Background: ADP-Glo turns the ADP formed in a reaction into a luminescent signal.
For `COc1cccc([C@@H](C)NC(=O)c2cccc(NCc3nnc(-c4ccncc4)[nH]3)c2)c1`, the IC50 worked out at 81.6 nM. Turning to `CN1CC[C@H](NC(=O)c2cccc(NCc3nnc(-c4ccncn4)n3C)c2)c2ccccc21`, the IC50 came out at 85 nM. For `COC1COc2ccccc2C1NC(=O)c1cccc(NCc2nnc(-c3ccncn3)n2C)c1` (centres unmarked), the IC50 is 59.1 nM. In the case of `CNS(=O)(=O)c1ccccc1CNC(=O)c1cccc(NCc2nnc(-c3ccncn3)n2C)c1`, the IC50 is 62.5 nM. Take `CNS(=O)(=O)Cc1ccccc1CNC(=O)c1cccc(NCc2nnc(-c3ccncn3)n2C)c1`: the IC50 is 68.9 nM. Turning to `CC(NC(=O)c1cccc(NCc2nnc(-c3ccncn3)n2C)c1)c1ccccc1NS(C)(=O)=O` (centres unmarked), the IC50 came to 68 nM. Regarding `CN1CCN(c2ccccc2CNC(=O)c2cccc(NCc3nnc(-c4ccncn4)n3C)c2)CC1`, the IC50 was determined as 184 nM. Regarding `Cn1c(CNc2cccc(C(=O)NCc3cc(F)ccc3N3CCOCC3)c2)nnc1-c1ccncn1`, the IC50 is 104 nM. Consider `Cc1ccc(CNC(=O)c2cccc(NCc3nnc(-c4ccncn4)n3C)c2)c(N2CCOCC2)c1`, for which the IC50 was determined as 412 nM. With `Cn1c(CNc2cccc(C(=O)NCc3ccccc3S(=O)(=O)N3CCOCC3)c2)nnc1-c1ccncn1`, the IC50 is 52.8 nM. Same read-out and setting: the result for `Cn1c(CNc2cccc(C(=O)NCc3ccccc3S(=O)(=O)N3CCCCC3)c2)nnc1-c1ccncn1` reads 50.5 nM. In the case of `Cn1c(CNc2cccc(C(=O)NCc3ccccc3CS(=O)(=O)N3CCCC3)c2)nnc1-c1ccncn1`, the IC50 was 107 nM. The same measure, in the same setting: the result for `Cn1c(CNc2cccc(C(=O)N[C@]3(c4ccccc4F)C[C@H](O)C3)c2)nnc1-c1ccncn1` reads 423 nM. Take `Cc1nnc(O)c(C(C)NC(=O)c2cccc(NCc3nnc(-c4ccncn4)n3C)c2)c1C` (centres unmarked): the IC50 worked out at 132 nM. Consider `Cc1ncc2c(n1)CCCC2NC(=O)c1cccc(NCc2nnc(-c3ccncn3)n2C)c1` (centres unmarked), for which the IC50 turned out to be 108 nM.

As to `Cn1c(CNc2cccc(C(=O)NCc3cc4c(nc3O)CCCC4)c2)nnc1-c1ccncn1`, the IC50 was determined as 192 nM. As for `Cn1c(CNc2cccc(C(=O)NCc3ncccc3-n3cccn3)c2)nnc1-c1ccncn1`, the IC50 is 318 nM.

On to `CCc1n[nH]c(=O)c(CNC(=O)c2cccc(NCc3nnc(-c4ccncn4)n3C)c2)c1CC`, for which the IC50 is 504 nM. In the case of `CN1CCN(c2ncccc2CNC(=O)c2cccc(NCc3nnc(-c4ccncn4)n3C)c2)CC1`, the IC50 is 289 nM.

For a further experiment, the system named is PAXF1657 control empty vector cell line. Nature of the experiment: 7-day proliferation assay, PAXF1657 control empty vector cell line (Example 9). It counts as cell-based. To be noted: 168 h; Cell Line: PAXF1657 empty vector (EV) cell line; 7-day; read-out: C: 7-day proliferation assay: IC50 GeoMean. As for the experimental part: In order to identify compounds specific for GRK2, we generated two isogenic cell line pairs of the pancreatic cancer cell line PAXF1657, a pair of cells stably overexpressing GRK2 cDNA or the control empty vector and a cell line pair of PAXF1657 GRK2 knockout clonal cells versus non-targeting control clonal cells.
Proliferation Assay: Cellular anti-proliferative activity of compounds was assessed by using the pancreatic cancer cell line, PAXF1657, stably overexpressing GRK2 cDNA or the control empty vector, as well as the parental urinary bladder cancer cell line, 5637. In addition, we also took advantage of GRK2 knockout cell lines that were generated via CRISPR. Cell lines were seeded into tissue culture treated, white-walled, 96-well plates at a density of 500 cells/well in RPMI1640 media supplemented with 10% H.I. FBS and penicillin/streptomycin. Plates were incubated overnight at 37° C., 5% CO2 to allow cells to adhere to the wells. GRK2 inhibitors were added to the cells using a 10-point dilution series with a final concentration ranging from 30 μM-0.0002 μM in 0.3% DMSO. At the time of compound addition, a set of plates, that were not treated with compounds, were collected and cell viability was measured using CellTiter-Glo (Promega). CellTiter-Glo reagent was added to the designed plates and luminescence was measuring using a Biotek Synergy plate reader. The compound treated cells were incubated for 3 days at 37° C., 5% CO2. The media was then aspirated from each well and replaced with fresh media containing GRK2 inhibitors. The compound treated cells were then incubated for an additional 4 days at 37° C., 5% CO2. Cell viability was assessed and at end of the 7-day compound treatment by CellTiterGlo.
Turning to `C[C@H](NC(=O)c1cccc(NCc2nnc(-c3ccncn3)n2C)c1)c1cncc(F)c1`, the IC50 was found to be 2300 nM. For `Cn1c(CNc2cccc(C(=O)NCc3cn[nH]c3)c2)nnc1-c1ccncn1`, the IC50 was greater than 10000 nM. On to `COc1cccc(CNC(=O)c2cccc(NCc3nnc(-c4ccncn4)n3C)c2)c1OC`, for which the IC50 was greater than 10000 nM.

As for `Cn1c(CNc2cccc(C(=O)NCc3ccnc(C(F)(F)F)c3)c2)nnc1-c1ccncn1`, the IC50 came to 995 nM.

Consider `COc1ccnc(CNC(=O)c2cccc(NCc3nnc(-c4ccncn4)n3C)c2)c1`, for which the IC50 stood at 3150 nM. `Cc1ccnc(CNC(=O)c2cccc(NCc3nnc(-c4ccncn4)n3C)c2)n1`: the IC50 was greater than 10000 nM. Consider `Cn1c(CNc2cccc(C(=O)NCc3ncccn3)c2)nnc1-c1ccncn1`, for which the IC50 is greater than 10000 nM.

For the compound `O=C(NCc1nnc2n1CCCC2C(F)(F)F)c1cccc(NCc2nnc(-c3ccncc3)[nH]2)c1` (centres unmarked), the IC50 is greater than 10000 nM.

On to `O=C(NCC1CC1(F)F)c1cccc(NCc2nnc(-c3ccncc3)[nH]2)c1` (centres unmarked), for which the IC50 is greater than 10000 nM. On to `COC[C@H](NC(=O)c1cccc(NCc2nnc(-c3ccncc3)[nH]2)c1)c1cccnc1`, for which the IC50 was greater than 10000 nM. Consider `C[C@H](NC(=O)c1cccc(NCc2nnc(-c3ccncc3)[nH]2)c1)c1ccnn1C`, for which the IC50 came to 9810 nM. Take `Cc1nn(C)c(C)c1CNC(=O)c1cccc(NCc2nnc(-c3ccncc3)[nH]2)c1`: the IC50 was greater than 10000 nM. The same measure, in the same setting: the result for `O=C(NCc1cccnc1-n1ccnc1)c1cccc(NCc2nnc(-c3ccncc3)[nH]2)c1` reads greater than 10000 nM. `Cc1nnc(CNC(=O)c2cccc(NCc3nnc(-c4ccncc4)[nH]3)c2)n1C`: the IC50 is greater than 10000 nM. For the compound `C[C@H](NC(=O)c1cccc(NCc2nnc(-c3ccncc3)[nH]2)c1)c1cnnn1C`, the IC50 was greater than 10000 nM. `COCCn1nc(C)c(CNC(=O)c2cccc(NCc3nnc(-c4ccncc4)[nH]3)c2)c1C`: the IC50 is greater than 10000 nM.

Consider `Cc1n[nH]cc1CNC(=O)c1cccc(NCc2nnc(-c3ccncc3)[nH]2)c1`, for which the IC50 is greater than 10000 nM. Turning to `Cn1cnnc1CNC(=O)c1cccc(NCc2nnc(-c3ccncc3)[nH]2)c1`, the IC50 was greater than 10000 nM. As to `Cn1ncnc1CNC(=O)c1cccc(NCc2nnc(-c3ccncc3)[nH]2)c1`, the IC50 was greater than 10000 nM. On to `CCn1cnnc1CNC(=O)c1cccc(NCc2nnc(-c3ccncc3)[nH]2)c1`, for which the IC50 was greater than 10000 nM. Still for that read-out and setting: the result for `CCn1nccc1CNC(=O)c1cccc(NCc2nnc(-c3ccncc3)[nH]2)c1` reads 739 nM. As to `CCn1ncnc1CNC(=O)c1cccc(NCc2nnc(-c3ccncc3)[nH]2)c1`, the IC50 is greater than 10000 nM. As for `O=C(NCc1ccncn1)c1cccc(NCc2nnc(-c3ccncc3)[nH]2)c1`, the IC50 is greater than 10000 nM. Still for that read-out and setting: in the case of `O=C(NCc1cccnn1)c1cccc(NCc2nnc(-c3ccncc3)[nH]2)c1` it was greater than 10000 nM; in that of `COCCn1cc(C(C)NC(=O)c2cccc(NCc3nnc(-c4ccncc4)[nH]3)c2)cn1` (centres unmarked), greater than 10000 nM; in that of `CC(NC(=O)c1cccc(NCc2nnc(-c3ccncc3)[nH]2)c1)c1ncnn1C` (centres unmarked), greater than 10000 nM. Take `CN(C)CCC(NC(=O)c1cccc(NCc2nnc(-c3ccncc3)[nH]2)c1)c1ccccc1` (centres unmarked): the IC50 was greater than 10000 nM. The same measure, in the same setting: in the case of `CC(NC(=O)c1cccc(NCc2nnc(-c3ccncc3)[nH]2)c1)c1cn[nH]c1` (centres unmarked) it was 323 nM. Still for that read-out and setting: the result for `O=C(NCc1nnc2n1CCC(C(F)(F)F)C2)c1cccc(NCc2nnc(-c3ccncc3)[nH]2)c1` (centres unmarked) reads 89300 nM; that for `CC(NC(=O)c1cccc(NCc2nnc(-c3ccncc3)[nH]2)c1)c1ncn(C)n1` (centres unmarked), greater than 10000 nM. In the case of `CN(C)CCC(NC(=O)c1cccc(NCc2nnc(-c3ccncc3)[nH]2)c1)c1cccnc1` (centres unmarked), the IC50 was greater than 10000 nM. As for `CC(NC(=O)c1cccc(NCc2nnc(-c3ccncc3)[nH]2)c1)c1nncn1C` (centres unmarked), the IC50 is greater than 10000 nM.

As to `CCOc1ccccc1CNC(=O)c1cccc(NCc2nnc(-c3ccncc3)[nH]2)c1`, the IC50 is greater than 30000 nM. Regarding `Cc1csc(CNC(=O)c2cccc(NCc3nnc(-c4ccncn4)n3C)c2)n1` [drawing 407], the IC50 amounted to 862 nM.

The values are drawn from patent publication US20230009608A1, “GRK2 INHIBITORS AND USES THEREOF” (Cygnal Therapeutics, Inc., priority 2020, published 2023).
